In PubChem BioAssay AID286 (DTP/NCI, 2004):
Several values for one entry are separate records, joined by “and”; a condition that tells them apart may be missing. Equal values may be shown once. Inconclusive results and toxic doses are left out. Starred links: 1 amine or outer side, 2 acyl side, 3 side chain; linkers in the order of their positions; H or OH if unused. Positions of bridges follow the written chain, without caps; N, C: chain ends. Non-standard residues stand in square brackets, D forms with d. Residues, ends and D or L forms follow the SMILES beside them. Chains are numbered I, II in the order given. ξ: configuration not given here. *: point of attachment. Quinaldoyl(3-OH,6-OMe) = COc1ccc2nc(C(=O)*)c(O)cc2c1; X1 = CCC(=O)OC1CC=NN([*:1])C1C(=O)[*:2]; X2 = CC(=O)OC1CC=NN([*:1])C1C(=O)[*:2]; ξNMeVal(3-OH) = CNC(C(=O)O)C(C)(C)O; Sar = CNCC(=O)O

Tested on: BDF1 mice, M5076 sarcoma ip, median survival T/C
Experiment: NCI In Vivo Anticancer Drug Screen. Data for tumor model Sarcoma M5076 (intraperitoneal) in B6D2F1 (BDF1) mice
Details: endpoint: median survival time, higher = longer survival
Protocol: The antitumor activity of compounds was measured in mice bearing transplantable tumors. Survival or tumor size were measured and the results are expressed as the measurement made in the treated group (T) divided by the measurement made in the vehicle treated control group (C). The tumor model used in this assay is Sarcoma M5076 (intraperitoneal) in B6D2F1 (BDF1) mice

[1] = dose: 0.5 mg/kg/injection, schedule: Q04DX005 (ip), vehicle: saline
[2] = dose: 1.0 mg/kg/injection, schedule: Q04DX005 (ip), vehicle: saline
[3] = dose: 2.0 mg/kg/injection, schedule: Q04DX005 (ip), vehicle: saline
[4] = dose: 0.75 mg/kg/injection, schedule: Q04DX005 (ip), vehicle: saline
[5] = dose: 1.5 mg/kg/injection, schedule: Q04DX005 (ip), vehicle: saline
[6] = dose: 3.0 mg/kg/injection, schedule: Q04DX005 (ip), vehicle: saline
[7] = dose: 50.0 mg/kg/injection, schedule: Q04DX004 (ip), vehicle: saline with Tween-80
[8] = dose: 100.0 mg/kg/injection, schedule: Q04DX004 (ip), vehicle: saline with Tween-80

Structure (SMILES): CC(=O)OCC1OC(n2ncc(=O)[nH]c2=O)C(OC(C)=O)C1OC(C)=O (configuration not stated)
- T/C (dose: 150.0 mg/kg/injection, schedule: Q04DX004 (ip), vehicle: Klucel (hydroxypropylcellulose) (HPC)): 102 % of control
- T/C (dose: 300.0 mg/kg/injection, schedule: Q04DX004 (ip), vehicle: Klucel (hydroxypropylcellulose) (HPC)): 102 % of control
- T/C (dose: 600.0 mg/kg/injection, schedule: Q04DX004 (ip), vehicle: Klucel (hydroxypropylcellulose) (HPC)): 102 % of control
- T/C (dose: 1200.0 mg/kg/injection, schedule: Q04DX004 (ip), vehicle: Klucel (hydroxypropylcellulose) (HPC)): 87 % of control

Structure (SMILES): Cc1c2ccncc2c(C)c2c1[nH]c1ccccc12
- T/C (dose: 40.0 mg/kg/injection, schedule: Q04DX004 (ip), vehicle: saline with Tween-80): 170 % of control
- T/C (dose: 80.0 mg/kg/injection, schedule: Q04DX004 (ip), vehicle: saline with Tween-80): 191 % of control

Structure (SMILES): CC[C@]1(O)C[C@H]2CN(CCc3c([nH]c4ccccc34)[C@@](C(=O)OC)(c3cc4c(cc3OC)N(C=O)[C@H]3[C@@](O)(C(=O)OC)[C@H](OC(C)=O)[C@]5(CC)C=CCN6CC[C@]43[C@@H]65)C2)C1
- T/C (dose: 0.25 mg/kg/injection, schedule: Q04DX005 (ip), vehicle: saline): 112 % of control and 124 % of control
- T/C [1]: 164 % of control
- T/C [2]: 228 % of control and 156 % of control

Structure (SMILES): CCC(=O)OC1CC=NN2C(=O)C(NC(=O)c3nc4ccc(OC)cc4cc3O)COC(=O)C(C(C)(C)O)N(C)C(=O)CN(C)C(=O)CNC(=O)C3C(OC(C)=O)CC=NN3C(=O)C(NC(=O)c3nc4ccc(OC)cc4cc3O)COC(=O)C(C(C)(C)O)N(C)C(=O)CN(C)C(=O)CNC(=O)C12 (configuration not stated) (I: {Quinaldoyl(3-OH,6-OMe)}-S[X1]G[Sar][ξNMeVal(3-OH)] / II: {Quinaldoyl(3-OH,6-OMe)}-S[X2]G[Sar][ξNMeVal(3-OH)]; ester I:1-II:C, I:C-II:1; configuration not given here)
- T/C (dose: 18.75 micrograms/kg/injection, schedule: Q01DX009 (ip), vehicle: DMSO): 117 % of control
- T/C (dose: 37.5 micrograms/kg/injection, schedule: Q01DX009 (ip), vehicle: DMSO): 165 % of control and 169 % of control
- T/C (dose: 75.0 micrograms/kg/injection, schedule: Q01DX009 (ip), vehicle: DMSO): 191 % of control and 160 % of control
- T/C (dose: 150.0 micrograms/kg/injection, schedule: Q01DX009 (ip), vehicle: DMSO): 165 % of control

Structure (SMILES): COC1CC2C=C(C)/C=C/C=C/C(=O)NC(c3ccccc3)C/C=C/CCC(O)CC(=O)C2=C1O (configuration not stated)
- T/C (dose: 1.56 mg/kg/injection, schedule: Q01DX009 (ip), vehicle: Klucel (hydroxypropylcellulose) (HPC)): 115 % of control

Structure (SMILES): C=C1C(=O)OC2C1C(OC(=O)/C(C)=C\C)CC(C)=C1C(=O)C3OC3(C)C12O (configuration not stated)
- T/C (dose: 1.25 mg/kg/injection, schedule: Q01DX009 (ip), vehicle: saline + alcohol): 97 % of control
- T/C (dose: 2.5 mg/kg/injection, schedule: Q01DX009 (ip), vehicle: saline + alcohol): 105 % of control
- T/C (dose: 5.0 mg/kg/injection, schedule: Q01DX009 (ip), vehicle: saline + alcohol): 105 % of control and 121 % of control
- T/C (dose: 20.0 mg/kg/injection, schedule: Q01DX009 (ip), vehicle: saline + alcohol): 117 % of control

Structure (SMILES): Cc1nc(C(Cl)(Cl)Cl)[nH]c(=O)c1SCCO
- T/C (dose: 50.0 mg/kg/injection, schedule: Q04DX004 (ip), vehicle: distilled water + alcohol): 101 % of control
- T/C (dose: 100.0 mg/kg/injection, schedule: Q04DX004 (ip), vehicle: distilled water + alcohol): 93 % of control
- T/C (dose: 200.0 mg/kg/injection, schedule: Q04DX004 (ip), vehicle: distilled water + alcohol): 94 % of control
- T/C (dose: 400.0 mg/kg/injection, schedule: Q04DX004 (ip), vehicle: distilled water + alcohol): 96 % of control

Structure (SMILES): O=C1c2ccccc2C(=O)c2c(NCCNCCO)ccc(NCCNCCO)c21
- T/C (dose: 5.0 mg/kg/injection, schedule: Q04DX005 (ip), vehicle: saline): 277 % of control
- T/C (dose: 10.0 mg/kg/injection, schedule: Q04DX005 (ip), vehicle: saline): 357 % of control

Structure (SMILES): O=C1c2c(O)ccc(O)c2C(=O)c2c(NCCNCCO)ccc(NCCNCCO)c21
- T/C (dose: 0.25 mg/kg/injection, schedule: Q04DX004 (ip), vehicle: water): 236 % of control
- T/C (dose: 0.5 mg/kg/injection, schedule: Q04DX004 (ip), vehicle: water): 260 % of control
- T/C [1]: 401 % of control
- T/C (dose: 1.0 mg/kg/injection, schedule: Q04DX004 (ip), vehicle: water): 260 % of control
- T/C [2]: 321 % of control
- T/C (dose: 2.0 mg/kg/injection, schedule: Q04DX004 (ip), vehicle: water): 260 % of control
- T/C [3]: 99 % of control
- T/C (dose: 4.0 mg/kg/injection, schedule: Q04DX004 (ip), vehicle: water): 100 % of control

Structure (SMILES): CC[C@]1(O)C[C@H]2CN(CCc3c([nH]c4ccccc34)[C@@](C(=O)OC)(c3cc4c(cc3OC)N(C)[C@H]3[C@@](O)(C(=O)OC)[C@H](OC(C)=O)[C@]5(CC)C=CCN6CC[C@]43[C@@H]65)C2)C1
- T/C (dose: 0.38 mg/kg/injection, schedule: Q04DX005 (ip), vehicle: saline): 180 % of control
- T/C [4]: 293 % of control
- T/C [5]: 202 % of control and 401 % of control
- T/C [6]: 401 % of control and 160 % of control

Structure (SMILES): CN=C(N)N/N=C(\C)c1ccc2sc3ccc(/C(C)=N/NC(N)=NC)cc3c2c1
- T/C [7]: 113 % of control
- T/C [8]: 105 % of control
- T/C (dose: 200.0 mg/kg/injection, schedule: Q04DX004 (ip), vehicle: saline with Tween-80): 119 % of control

Structure (SMILES): COc1cccc2c1C(=O)c1c(O)c3c(c(O)c1C2=O)C[C@@](O)(C(=O)CO)C[C@@H]3OC1CC(N)C(O)C(C)O1 (some centres not stated)
- T/C [1]: 196 % of control
- T/C [4]: 204 % of control
- T/C [2]: 197 % of control
- T/C (dose: 1.5 mg/kg/injection, schedule: Q01DX007 (ip), vehicle: saline): 171 % of control
- T/C [5]: 277 % of control
- T/C (dose: 2.0 mg/kg/injection, schedule: Q04DX004 (ip), vehicle: saline): 160 % of control
- T/C [3]: 401 % of control
- T/C (dose: 2.1 mg/kg/injection, schedule: Q01DX007 (ip), vehicle: saline): 176 % of control
- T/C (dose: 3.0 mg/kg/injection, schedule: Q01DX007 (ip), vehicle: saline): 216 % of control
- T/C [6]: 308 % of control
- T/C (dose: 3.4 mg/kg/injection, schedule: Q04DX003 (ip), vehicle: saline): 152 % of control
- T/C (dose: 4.0 mg/kg/injection, schedule: Q04DX004 (ip), vehicle: saline): 190 % of control
- T/C (dose: 4.0 mg/kg/injection, schedule: Q04DX005 (ip), vehicle: saline): 208 % of control
- T/C (dose: 5.0 mg/kg/injection, schedule: Q04DX003 (ip), vehicle: saline): 176 % of control
- T/C (dose: 6.0 mg/kg/injection, schedule: Q04DX005 (ip), vehicle: saline): 308 % of control
- T/C (dose: 7.0 mg/kg/injection, schedule: Q01DX001 (ip), vehicle: saline): 159 % of control
- T/C (dose: 7.5 mg/kg/injection, schedule: Q04DX003 (ip), vehicle: saline): 120 % of control
- T/C (dose: 8.0 mg/kg/injection, schedule: Q04DX004 (ip), vehicle: saline): 190 % of control
- T/C (dose: 10.0 mg/kg/injection, schedule: Q01DX001 (ip), vehicle: saline): 159 % of control
- T/C (dose: 15.0 mg/kg/injection, schedule: Q01DX001 (ip), vehicle: saline): 185 % of control

Structure (SMILES): CC(=O)C[n+]1ccc(C)cc1Sc1ccccc1C
- T/C (dose: 12.5 mg/kg/injection, schedule: Q04DX004 (ip), vehicle: saline with Tween-80): 104 % of control
- T/C (dose: 25.0 mg/kg/injection, schedule: Q04DX004 (ip), vehicle: saline with Tween-80): 98 % of control
- T/C [7]: 92 % of control
- T/C [8]: 94 % of control

Structure (SMILES): CC[C@](O)(C(=O)O)c1cc2n(c(=O)c1CO)Cc1cc3ccccc3nc1-2
- T/C (dose: 12.5 mg/kg/injection, schedule: Q04DX004 (ip), vehicle: saline): 124 % of control

Structure (SMILES): CSC1SCC2C(=O)N(C)C(C(C)C)C(=O)OCC(NC(=O)c3cnc4ccccc4n3)C(=O)NC(C)C(=O)N(C)C1C(=O)N(C)C(C(C)C)C(=O)OCC(NC(=O)c1cnc3ccccc3n1)C(=O)NC(C)C(=O)N2C (configuration not stated)
- T/C (dose: 25.0 micrograms/kg/injection, schedule: Q01DX009 (ip), vehicle: saline with Tween-80): 157 % of control
- T/C (dose: 50.0 micrograms/kg/injection, schedule: Q01DX009 (ip), vehicle: saline with Tween-80): 177 % of control
- T/C (dose: 100.0 micrograms/kg/injection, schedule: Q01DX009 (ip), vehicle: saline with Tween-80): 201 % of control

Structure (SMILES): S=c1nc[nH]c2nc[nH]c12
- T/C (dose: 20.0 mg/kg/injection, schedule: Q04DX005 (ip), vehicle: alkali diluted with saline): 96 % of control
- T/C (dose: 80.0 mg/kg/injection, schedule: Q04DX005 (ip), vehicle: alkali diluted with saline): 120 % of control

Structure (SMILES): CC1=C[P+](c2ccccc2)(c2ccccc2)C=C(c2ccccc2)O1
- T/C (dose: 1.25 mg/kg/injection, schedule: Q04DX004 (ip), vehicle: saline + alcohol): 99 % of control
- T/C (dose: 2.5 mg/kg/injection, schedule: Q04DX004 (ip), vehicle: saline + alcohol): 107 % of control
- T/C (dose: 5.0 mg/kg/injection, schedule: Q04DX004 (ip), vehicle: saline + alcohol): 118 % of control
